This note sets out measurements from patent US7829578B1, “Aromatic ketones and uses thereof” (Oregon Health & Science University, priority 2005, dated 2010).

Assay [1] concerns multidrug resistant Dd2 strain of P. falciparum. Put plainly: Isobolar analysis of combination with clopidol in vitro (FIG. 4). The class given is cell-based, Plasmodium falciparum. Here is the method: Values below the theoretical straight line of addition are considered to be indicative of synergism. This study was performed with the multidrug resistant Dd2 strain of P. falciparum.

Assay [2] has as its system Plasmodium parasitized red blood cells. Put plainly: Oxygen consumption (respiration) by parasitized red blood cells (FIG. 3). The class given is cell-based. As to conditions: compared with atovaquone at equimolar concentrations. From the text:
While not intending to be limited to any mechanism of action, it is contemplated that some of the presently described compounds may act through inhibiting parasite growth through inhibition of the enzyme cytochrome b.

The subject of assay [3] is drug susceptible (D6) strain of Plasmodium falciparum. Description: In vitro antimalarial MSF (SyBrGreen I fluorescence) assay, D6 strain. The class given is cell-based. As for the experimental part: (§1) Four different laboratory strains of P. falciparum were cultured in human erythrocytes by standard methods under a low oxygen atmosphere (5% O2, 5% CO2, 90% N2) in an environmental chamber. The culture medium was RPMI 1640, supplemented with 25 mM Hepes buffer, 25 mg/liter gentamicin sulfate, 45 mg/liter hypoxanthine, 10 mM glucose, 2 mM glutamine, and 0.5% Albumax II (complete medium). The parasites were maintained in fresh human erythrocytes suspended at a 2% hematocrit in complete medium at 37° C. Stock cultures were sub-passaged every 3 to 4 days by transfer of infected red cells to a flask containing complete medium and uninfected erythrocytes.
In vitro antimalarial activity of the test compounds was assessed by a fluorescence-based method described previously (Smilkstein et al., 2004, Antimicrobial Agents and Chemotherapy, Vol. 48, pgs. 1803-1806) (reference format?). The studies were set up in triplicate in 96 well plates with two-fold dilutions of each test compound across the plate in a total volume of 100 μl and at a final red blood cell concentration of 2% (v/v). Stock solutions of each drug were prepared by dissolving in DMSO at 10 mM. […] In every case, an additional determination was performed to ensure bracketing of the IC50 value by at least an order of magnitude.
Automated pipeting and dilution was carried out by a programmable Precision 2000 robotic station (Bio-Tek, Winooski, Vt.). An initial parasitemia of 0.2% was attained by addition of normal uninfected red cells to a stock culture of asynchronous parasite infected red cells (PRBC). The plates were incubated for 72 hrs at 37° C. in an atmosphere of 5% CO2, 5% O2, and 90% N2. After this period, the SyBrGreen I dye-detergent mixture (100 μl) was added and the plates were incubated at room temperature for an hour in the dark and then placed in a 96-well fluorescence plate reader (Gemini-EM, […]) for analysis with excitation and emission wavelength bands centered at 497 and 520 nm, respectively.

Assay [4] deals with multi-drug resistant strain (W2) of Plasmodium falciparum. Put plainly: In vitro antimalarial activity, W2 strain. It is filed as cell-based. As to conditions: read-out: IC50 against multi-drug resistant strain (W2). Here is the method: as §1
In vitro antimalarial activity of the test compounds was assessed by a fluorescence-based method described previously (Smilkstein et al., 2004, Antimicrobial Agents and Chemotherapy, Vol. 48, pgs. 1803-1806) (reference format?). […]
Automated pipeting and dilution was carried out by a programmable Precision 2000 robotic station (Bio-Tek, Winooski, Vt.). […] After this period, the SyBrGreen I dye-detergent mixture (100 μl) was added and the plates were incubated at room temperature for an hour in the dark and then placed in a 96-well fluorescence plate reader (Gemini-EM, […]) for analysis with excitation and emission wavelength bands centered at 497 and 520 nm, respectively.

SMILES strings stand for the structures.

With `COc1ccc2c(=O)c(CCCCCC(F)(F)F)c(C)[nH]c2c1` [2-methyl-3-(6,6,6-trifluorohexyl)-7-methoxy-4(1H)-quinolone], the interaction with clopidol result in assay [1] was “acting in synergy with clopidol”. Also, the “inhibition of oxygen consumption (respiration)” value in assay [2] is recorded as “inhibiting oxygen consumption by Plasmodium parasitized red blood cells in similar fashion to atovaquone”.

In the case of `COc1ccc2c(=O)c(CCCCCCCCCCC(F)(F)F)c(C)[nH]c2c1` [No. 45, 2-methyl-3-(11,11,11-trifluoro-undecy1)-7-methoxy-4(1H)-quinolone], in assay [3] (compared to IC50 of the parent compound without the QZ side chain), the “improvement of antimalarial potency by the QZ group” value is given as “more than 1,000 fold”. The concentration for half-maximal inhibition (IC50) in assay [3] (read-out: IC50 against drug sensitive (D6) strain) and in assay [4] was around 0.2 nM in each case.
